# Data taken from patent US8410044B2, “Bacitracin antibiotics” (Xellia Pharmaceuticals Aps, priority 2009, dated 2013).
# Where a SMILES comes first, the peptide text is derived from it. Bridges are numbered along the chain shown (N, C = ends). [ ]: non-standard residue; d: D form. The star is where a group is joined. X2 = CCC(C)C(N)C1=NC(C(=O)*)CS1; Orn = NCCC[CH](N)C(=O)O
# Test system: Micrococcus luteus
# Assay: Potency (specific antibacterial activity): agar plate inhibition zones compared with Bacitracin Zinc standard
# Type: cell-based
# Conditions: calculated from potency of sample A and its 93% area-% content
# Experimental: Potency is the in vitro antibacterial activity. It can be measurered and expressed as IU/mg. The antibacterial activity of samples A, B′ and C′ (see Table 1) was measured. The specific antibacterial activity (listed here as IU/mg), often termed potency, was measured by comparing the antibacterial activity of the unknown sample with known (standard) samples. Specifically, a Bacitracin Zinc standard was dissolved and diluted to 2.0, 1.0, and 0.5 IU bacitracin/ml in 0.07 M phosphate buffer pH 6.0. These three standard solutions were added to agar plates inoculated with the test organism, Micrococcus luteus. The unknown samples were dissolved, diluted and added to the same plate as the standards. After 16-24 hours at 32-37 C, the inhibition zones were measured and the unknown samples were compared to the standards.
compound,measurement,value
CCC(C)C(N)C1=NC(C(=O)NC(CC(C)C)C(=O)NC(CCC(=O)O)C(=O)NC(C(=O)NC2CCCCNC(=O)C(CC(N)=O)NC(=O)C(CC(=O)O)NC(=O)C(Cc3c[nH]cn3)NC(=O)C(Cc3ccccc3)NC(=O)C(C(C)CC)NC(=O)C(CCCN)NC2=O)C(C)CC)CS1 (stereo not shown) [Bacitracin A] (X2-LEIK[Orn]IFHDN; lactam 4-C; configuration not given here),"specific antibacterial activity of Bacitracin A, calculated from sample A (93% Bacitracin A by HPLC at 254 nm)",77.4 IU/mg
